Results on twelve compounds are retold here after patent US11643655B2, “Methods for intracellular delivery and enhanced gene targeting” (CITY OF HOPE, priority 2016, dated 2023).

“And” between values parts separate entries of the source, which are not always exact repeats. Equal values may be shown once. “Also recorded” adds a separate entry of the source. Read-outs that look alike come from different tables or passages of the source. l = locked nucleic acid (LNA); d = 2'-deoxy (DNA)

Data set [1] has as its system HeLa EGFP-654 cells. Description: SSO-654-mediated EGFP expression (splice switching) in HeLa EGFP-654 cells; flow cytometry, Western blot, microscopy. The format is cell-based, human. In general terms: In flow cytometry, cells or beads pass a laser one at a time.
For data set [2] the following is noted: cited from earlier work.
The test system of the next data set is PKR. Description: PKR expression by real-time PCR (cellular stress response) in HeLa-GFP-654 cells. Format: cell-based, human. A general note: In qPCR the cycle at which signal appears reflects the starting amount.
Another data set concerns androgen receptor (AR). Description: ASO silencing of AR protein expression, Western blot. The format is cell-based, human. To be noted: LNCaP cells; for reduction in AR protein expression: three days. On the procedure: Cells were harvested with trypsin digestion and washed once with PBS. Cell pellets were lysed in cold RIPA buffer containing protease inhibitors. Cellular RIPA lysates were sonicated for 2 seconds and then rested on ice for 5 min. Cell debris was removed by centrifugation at 12,000×g for 10 min at 4° C. Protein concentrations were determined using the Pierces BCA Protein Assay kit (Thermo Fisher Scientific, Waltham, Mass.). Aliquots of cell extracts containing 30-40 μg of protein were resolved by SDS-PAGE gel electrophoresis, and then transferred to PVDF membranes. After treatment with the appropriate primary and secondary antibodies, enhanced chemiluminescence was performed. Protein signals on the blot were quantified with the Image J program and protein expression was normalized to control=100%.
Protein expression was quantified with ImageJ.

A further data set has as its system AR mRNA. Description: AR mRNA RT-PCR in LNCaP cells. The following applies: 1 μM AR-ASO with 5 mM NH4^+, 24 hr, p<0.01. Format: cell-based, human. On the procedure:
Values were normalized to GAPDH mRNA expression and expressed as the mean±SD, n=3. **p<0.01, Students t-test.
RNA was extracted from cells using RNA-STAT 60 (AMS Biotechnology, Abingdon, UK) as recommended by the manufacturer. First-strand cDNA was synthesized with the Super-Script® III First-Strand Synthesis System Kit (Invitrogen, Carlsbad, Calif.). PCR was performed with Power SYBR GREEN PCR Master Mix (Thermo Fisher Scientific, Waltham, Mass.).

The conditions of data set [3]: oligonucleotides delivered by gymnosis; cited from earlier work.
For data set [4] the following is noted: cited from earlier work. This is another data set of the same source.
For data set [5], the system named is HeLa EGFP-654 cells. Description: Cell growth and proliferation, SRB staining. The following applies: two days. A general note: Sulforhodamine B stains cellular protein and so reports cell mass.
A further data set concerns β-catenin. The format is cell-based, human.
The test system of data set [6] is HeLa-EGFP-654 and LNCaP cells. The format is cell-based, human.
For a further data set, the system named is BCL-2. Format: cell-based, human.
Another data set relates to HDAC-2 mRNA. Format: cell-based, human.
A further data set relates to Malat-1. The format is cell-based, human.
A further data set has as its system eGFP mRNA. The format is cell-based, human.
Data set [7] deals with HeLa EGFP-654 cells.
The test system of another data set is CDR1. Format: cell-based, human.

As usually defined, the pKa is the negative logarithm of the acid dissociation constant.

Consider `CCCCCCCC/C=C\CCCCCCCC(=O)O` [oleic acid], for which the “SSO-654 activity (EGFP MFI)” value in the data set with HeLa EGFP-654 cells [1] is “significantly enhanced SSO-654 activity”.
As to `Nc1c(Br)cc(Br)cc1CN[C@H]1CC[C@H](O)CC1` [Ambroxol], in the data set on HeLa EGFP-654 cells [1], the “SSO-654 activity (EGFP MFI)” value is reported as “significantly enhanced SSO-654 activity”. Also, the pKa in data set [2] was 9.1.
On to `NC1CCCCC1` [cyclohexylamine], for which the “SSO-654 activity (EGFP MFI)” value in the data set on HeLa EGFP-654 cells [1] is “significantly enhanced SSO-654 activity”.
For `OO` [H2O2, hydrogen peroxide], in the data set with HeLa EGFP-654 cells [1], the “frequency of splice switching (correctly spliced eGFP expression)” value (“frequency of splice switching” for short) is listed as “increased frequency of splice switching” and the “oligonucleotide (SSO) function, flow cytometry” value is “able to increase oligonucleotide function”. For the same compound, in the data set with PKR (oligonucleotide (SSO) combined with the treatment), the “PKR activation / expression” value is “increasing PKR expression”.
On to “AR-ASO: Phosphorothioate LNA gapmer ASO targeting Androgen Receptor, 5′-ACCaagtttcttcAGC-3′ (SEQ ID NO: 6) (antisense ACCAAGTTTCTTCAGC; sugars from the 5' end l3 d10 l3, all phosphorothioate, methylation of C not given here)”, for which, in the data set on HeLa EGFP-654 cells [1], the “inhibition of NH4^+ and SSO-654-mediated EGFP expression by a second ASO” value was “only slight or no inhibition”. For the same compound, in the data set on androgen receptor (AR) (0.25 μM AR-ASO with 5 mM NH4^+ vs 1 μM AR-ASO alone), the “AR reduction, dose response” value is “greater AR reduction than 1 μM AR-ASO alone”. Moreover, the “reduction in AR protein expression” value in the data set with androgen receptor (AR) (1 μM AR-ASO alone) is 40%; with androgen receptor (AR) (1 μM AR-ASO with 5 mM NH4^+), 80%. For the same compound, in the data set with AR mRNA, the “reduction of AR mRNA expression compared with the AR-ASO alone” value is recorded as “about 40%”.
Consider `CCC(=O)N1CC(=O)Nc2ccc(Br)cc2C1c1ccccc1` (stereo not drawn) [Retro-1], for which the “optimal concentration for enhancing SSO and ASO efficacy” value in [3] was 50 to 100 µM. Besides, the water solubility entry in data set [4] was “poorly water-soluble”.
With `Cl.N` [NH4^+, Ammonium chloride], in the data set with HeLa EGFP-654 cells [5] (NH4^+ alone 1 mM-2 mM), the “effect on cell growth” value was “did not affect the growth”. Besides, in the data set on HeLa EGFP-654 cells [5] (NH4^+ alone 5 mM, normalized to non-treated controls), the “inhibition of cell growth” value is recorded as “about 15%”. Further, in the data set on β-catenin, the “increase of β-Cat-ASO efficacy” value is listed as “approximately two fold”. Also, the “cellular uptake of Cy5-ASO (Cy5 MFI)” value in data set [6] is recorded as “did not significantly affect the cellular uptake”. For the same compound, in the data set with HeLa EGFP-654 cells [1], the “activity of lipofected SSO-654 (EGFP MFI)” value is listed as “did not enhance the activity of the SSO-654”; the “increase of SSO-654-induced EGFP protein expression” value is recorded as “more than two-fold”; the “increase of SSO-654 function and EGFP expression compared to SSO-654 alone” value is “a minimum of five fold”; the “increase of percentage of EGFP positive cells and EGFP protein expression compared to SSO-654 alone” value is given as “nearly seven-fold”. Besides, in the data set with HeLa EGFP-654 cells [1], the “increase of percentage of EGFP-positive cells, NH4^+/SSO-654 vs SSO-654” value is “nearly four-fold”; the “oligonucleotide (SSO) function, flow cytometry” value is “able to increase oligonucleotide function”; the “upregulation of SSO-654-mediated EGFP expression” value is “three- to five-fold”. Further, in the data set on PKR, the “PKR activation / expression” value was “does not seem to activate the stress gene response”.
Take `O=C1Nc2cc(Br)ccc2/C1=C1/Nc2ccccc2/C1=N\O` [6BIO]: in the data set on HeLa EGFP-654 cells [1], the “frequency of splice switching” value is recorded as “increased frequency of splice switching”.
For “BCL2-ASO: Phosphorothioate LNA gapmer ASO targeting BCL-2, 5′-^mCTcccagcgtgcg^mC^mCa-3′ (SEQ ID NO: 3)”, in the data set with BCL-2, the “BCL2 silencing (BCL-2 protein expression)” value was determined as 65%; the BCL-2 protein expression entry was “nearly completely depleted BCL-2 protein expression; also recorded: Some silencing of the BCL-2 protein expression”; the “depletion of BCL-2 protein expression” value is 98% and 70%. Further, in the data set on HeLa EGFP-654 cells [1], the “effect of BCL2-ASO on SSO-654 activity and EGFP expression” value is “diminished”; the “effect of BCL2-ASO on SSO-654 function” value is “did not affect SSO-654 function”.
For `CC(=O)O.N` [ammonium acetate], the “effect on SSO-654-mediated EGFP expression compared with NH4^+” value with HeLa EGFP-654 cells [1] is recorded as “comparable effects”.
Regarding “β-Cat-ASO: Phosphorothioate LNA gapmer ASO targeting β-catenin, 5′-CCAtcttgtgatcCAT-3′ (SEQ ID NO: 5) (antisense CCATCTTGTGATCCAT; sugars from the 5' end l3 d10 l3, all phosphorothioate, methylation of C not given here)”, the β-catenin gene expression entry with β-catenin was “nearly eliminated β-catenin gene expression”.
Take arsenic trioxide [As III]: the “expression of HDAC-2 mRNA” value with HDAC-2 mRNA is given as “did not significantly change”. In the data set with β-catenin, the “β-Cat-ASO activity (β-catenin protein)” value was “did not significantly increase”. In the data set on BCL-2, the “BCL2-ASO activity (BCL-2 protein)” value is on record as “did not significantly increase”. For the same compound, the “oligonucleotide uptake (Cy5-ON by gymnosis)” value in data set [6] is recorded as “No significant changes”. In the data set on Malat-1, the Malat-1 gene expression entry is given as “silenced as a function of increasing As III concentrations”. In addition, in the data set with HeLa EGFP-654 cells [1], the “frequency of splice switching” value is given as “increased frequency of splice switching” and the “upregulation of SSO-654-mediated EGFP expression” value is given as “three- to five-fold”. For the same compound, the “PKR activation / expression” value in the data set on PKR was “PKR is activated”. Besides, in the data set on eGFP mRNA, the “cytoplasmic oligonucleotide function (eGFP mRNA silencing by ON-eGFP)” value is reported as “some loss of oligonucleotide function”. Besides, the cell viability result with HeLa EGFP-654 cells [7] is listed as “No significant changes”. Further, the CDR-1 gene expression result with CDR1 is listed as “silenced as a function of increasing As III concentrations”.
